Data reported in patent US8735412B2, “Sulfoximine-substituted anilinopyrimidine derivatives as CDK inhibitors, the production thereof, and use as medicine” (Bayer Intellectual Property GmbH, priority 2008, dated 2014).

What was measured:
[1] = molecular target: T1, CDK1/CycB (Homo sapiens, UniProt P06493); assay: CDK1/CycB kinase assay (Assay 1); type: biochemical; settings: 0.5 μM ATP, histon IIIS substrate; read-out: CDK1/CycB (Assay 1) Concentration for 50% inhibition of enzyme activity, IC50
T1 construct: purchased ProQinase GmbH, Freiburg; host or cells: baculovirus-infected insect cells (Sf9)
T1 sequence (P06493 whole entry): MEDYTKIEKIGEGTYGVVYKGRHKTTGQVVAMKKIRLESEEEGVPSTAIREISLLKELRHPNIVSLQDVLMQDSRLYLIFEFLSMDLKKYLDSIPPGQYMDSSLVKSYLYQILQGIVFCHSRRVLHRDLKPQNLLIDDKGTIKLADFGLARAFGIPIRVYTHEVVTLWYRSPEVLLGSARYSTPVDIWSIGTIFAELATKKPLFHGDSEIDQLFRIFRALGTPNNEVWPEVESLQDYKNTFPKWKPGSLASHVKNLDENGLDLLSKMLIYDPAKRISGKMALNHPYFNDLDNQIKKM
T1 sequence (P14635 whole entry partner): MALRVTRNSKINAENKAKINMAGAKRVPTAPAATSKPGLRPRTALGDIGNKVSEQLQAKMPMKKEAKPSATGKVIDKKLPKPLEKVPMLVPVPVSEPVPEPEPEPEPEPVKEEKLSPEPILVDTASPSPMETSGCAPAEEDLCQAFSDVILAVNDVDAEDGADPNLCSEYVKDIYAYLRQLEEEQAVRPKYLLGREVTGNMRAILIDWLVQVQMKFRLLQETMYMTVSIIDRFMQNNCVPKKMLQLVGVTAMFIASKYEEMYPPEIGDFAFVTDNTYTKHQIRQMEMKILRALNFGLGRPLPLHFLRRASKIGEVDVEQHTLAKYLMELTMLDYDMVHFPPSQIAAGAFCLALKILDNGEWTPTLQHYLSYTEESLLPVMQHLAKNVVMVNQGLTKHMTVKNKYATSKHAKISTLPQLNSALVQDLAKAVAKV
Method: 10.1 Assay 1: CDK1/CycB Kinase Assay
Recombinant CDK1 and CycB-GST fusion proteins, purified from baculovirus-infected insect cells (Sf9), were purchased from ProQinase GmbH, Freiburg. The histon IIIS used as kinase substrate is commercially available from the company Sigma.
CDK1/CycB (200 ng/measuring point) was incubated for 10 min at 22° C. in the presence of various concentrations of test substances (0 μM, and within the range 0.01-100 μM) in assay buffer [50 mM Tris/HCl pH8.0, 10 mM MgCl2, 0.1 mM Na ortho-vanadate, 1.0 mM dithiothreitol, 0.5 μM adenosine triphosphate (ATP), 10 μg/measuring point histon IIIS, 0.2 μCi/measuring point ^33P-gamma ATP, 0.05% NP40, 1.25% dimethylsulfoxide]. The reaction was stopped by adding EDTA solution (250 mM, pH8.0, 15 μl/measuring point).
(§1) From each reaction mixture, 15 μl was applied to P30 filter strips (from Wallac), and unincorporated ^33P-ATP was removed by washing the filter strips three times, for 10 min each time, in 0.5% phosphoric acid. After drying the filter strips for 1 hour at 70° C., the filter strips were covered with scintillator strips (MeltiLex™ A, from Wallac) and stoved for 1 hour at 90° C. The amount of incorporated ^33P (substrate phosphorylation) was determined by scintillation measurement in a gamma-radiation measuring instrument (Wallac). The measured data were standardized to 0% inhibition (enzyme reaction without inhibitor) and 100% inhibition (all assay components except enzyme). The IC50 values were determined by means of a 4-parameter fit using the company's own software.

[2] = test system: HeLa-MaTu human cervical carcinoma xenograft; assay: HeLa-MaTu cervical tumor xenograft model on NMRI nude mice; type: in vivo; settings: oral, 2x daily on day 5, 6, 12, 13, 19, 20
Method: HeLa-MaTu (EPO-GmbH, Berlin) human cervical carcinoma cells, which were grown in cell culture, were implanted subcutaneously in the flank of female NMRI nude mice. […] The study was terminated as soon as the tumors in one of the groups reached a size of approx. 150 mm^2.
(§2) The growth-inhibiting effect of the compounds was tested in the HeLa-MaTu cervical tumor model as xenograft on NMRI nude mice. […] Treatment of the established tumors was begun on day 4 after inoculation of the tumors.
as §2, §2
(§3) The study was designed for determining the initial response of a human cervical carcinoma xenograft model to treatments with the 5-Br comparative substance V12. The growth-inhibiting effect of the compounds was tested in the HeLa-MaTu cervical tumor model as xenograft on NMRI nude mice. V12 was dissolved completely in the solubilizer 40% polyethylene glycol 400 (PEG 400)/60% water to a final concentration of 0.7 mg/ml (group 2), 0.85 mg/ml (group 3), or 1.0 mg/ml (group 4). Treatment of the established tumors was begun on day 4 after inoculation of the tumors.
HeLa-MaTu (EPO-GmbH, Berlin) human cervical carcinoma cells, which were grown in cell culture, were implanted subcutaneously in the flank of female NMRI nude mice. […] The study was terminated as soon as the tumors in one of the groups reached a size of approx. 160 mm^2.
(§4) The growth-inhibiting effect of the compounds was tested in the HeLa-MaTu cervical tumor model as xenograft on NMRI nude mice. […] Treatment of the established tumors was begun on day 5 after inoculation of the tumors.
as §4, §4
The following test groups were used: • Group 1: Control, treatment with solubilizer (40% PEG 400/60% water) • Group 2: Compound according to WO 2005/037800 prepared according to preparation V14 disclosed above • (6 mg/kg, oral, 2x daily on day 5, 6, 12, 13, 19, 20) • Group 3: Compound according to WO 2005/037800 prepared according to preparation V14 disclosed above • (8 mg/kg, oral, 2× daily on day 5, 6, 12, 13, 19, 20) • Group 4: Compound according to WO 2005/037800 prepared according to preparation V14 disclosed above • (10 mg/kg, oral, 2× daily on day 5, 6, 12, 13, 19, 20)
as §3, with “substance V14.” for “substance V12.”, “mice. V14” for “mice. V12”, “of 0.6” for “of 0.7”, “2), 0.8” for “2), 0.85”, “day 5” for “day 4”

[3] = test system: HeLa-MaTu cervical carcinoma cells; assay: Proliferation assay (Assay 4), crystal violet staining; type: cell-based; settings: Homo sapiens, 96 h, 4 days incubation; read-out: HeLa-MaTu (Assay 4) Concentration for 50% inhibition of cellular proliferation, IC50
Method: 10.4 Assay 4: Proliferation Assay
Cultivated human HeLa-MaTu cervical carcinoma cells (obtained from EPO-GmbH, Berlin) were plated at a density of 3000 cells/measuring point in a 96-well multititer is plate in 200 μl of growth medium (DMEM/HAMS F12, 2 mM L-glutamine, 10% fetal calf serum). After 24 hours the cells of one plate (zero-point plate) were stained with crystal violet (see below), whereas the medium of the other plates was replaced with fresh culture medium (200 μl), to which the test substances had been added at various concentrations (0 μM, and in the range 0.01-30 μM; the final concentration of the solvent dimethylsulfoxide was 0.5%). The cells were incubated for 4 days in the presence of the test substances. Cellular proliferation was determined by staining the cells with crystal violet: the cells were fixed by adding 20 μl/measuring point of an 11% glutaraldehyde solution for 15 min at room temperature. After washing the fixed cells with water three times, the plates were dried at room temperature. The cells were stained by adding 100 μl/measuring point of a 0.1% crystal violet solution (pH adjusted to pH3 by adding acetic acid). After washing the stained cells with water three times, the plates were dried at room temperature. The dye was dissolved by adding 100 μl/measuring point of a 10% acetic acid solution. The extinction was determined photometrically at a wavelength of 595 nm. The percentage change in cell growth was calculated by standardization of the measured values to the extinction values of the zero-point plate (=0%) and the extinction of the untreated (0 μM) cells (=100%). The measured data were standardized to 0% inhibition (cell proliferation without inhibitor) and 100% inhibition (zero-point plate). The IC50 values were determined by means of a 4-parameter fit using the company's own software.

[4] = molecular target: T2, VEGF receptor tyrosine kinase-2 (Homo sapiens, UniProt P35968); assay: VEGF receptor-2 kinase assay (Assay 3); type: biochemical; settings: 8 μM ATP, poly-(Glu4Tyr) substrate; read-out: VEGF-R2 (Assay 3) Concentration for 50% inhibition of enzyme activity, IC50
T2 construct: GST; made in house; host or cells: baculovirus-infected insect cells (Sf9)
T2 sequence (P35968 20-1356): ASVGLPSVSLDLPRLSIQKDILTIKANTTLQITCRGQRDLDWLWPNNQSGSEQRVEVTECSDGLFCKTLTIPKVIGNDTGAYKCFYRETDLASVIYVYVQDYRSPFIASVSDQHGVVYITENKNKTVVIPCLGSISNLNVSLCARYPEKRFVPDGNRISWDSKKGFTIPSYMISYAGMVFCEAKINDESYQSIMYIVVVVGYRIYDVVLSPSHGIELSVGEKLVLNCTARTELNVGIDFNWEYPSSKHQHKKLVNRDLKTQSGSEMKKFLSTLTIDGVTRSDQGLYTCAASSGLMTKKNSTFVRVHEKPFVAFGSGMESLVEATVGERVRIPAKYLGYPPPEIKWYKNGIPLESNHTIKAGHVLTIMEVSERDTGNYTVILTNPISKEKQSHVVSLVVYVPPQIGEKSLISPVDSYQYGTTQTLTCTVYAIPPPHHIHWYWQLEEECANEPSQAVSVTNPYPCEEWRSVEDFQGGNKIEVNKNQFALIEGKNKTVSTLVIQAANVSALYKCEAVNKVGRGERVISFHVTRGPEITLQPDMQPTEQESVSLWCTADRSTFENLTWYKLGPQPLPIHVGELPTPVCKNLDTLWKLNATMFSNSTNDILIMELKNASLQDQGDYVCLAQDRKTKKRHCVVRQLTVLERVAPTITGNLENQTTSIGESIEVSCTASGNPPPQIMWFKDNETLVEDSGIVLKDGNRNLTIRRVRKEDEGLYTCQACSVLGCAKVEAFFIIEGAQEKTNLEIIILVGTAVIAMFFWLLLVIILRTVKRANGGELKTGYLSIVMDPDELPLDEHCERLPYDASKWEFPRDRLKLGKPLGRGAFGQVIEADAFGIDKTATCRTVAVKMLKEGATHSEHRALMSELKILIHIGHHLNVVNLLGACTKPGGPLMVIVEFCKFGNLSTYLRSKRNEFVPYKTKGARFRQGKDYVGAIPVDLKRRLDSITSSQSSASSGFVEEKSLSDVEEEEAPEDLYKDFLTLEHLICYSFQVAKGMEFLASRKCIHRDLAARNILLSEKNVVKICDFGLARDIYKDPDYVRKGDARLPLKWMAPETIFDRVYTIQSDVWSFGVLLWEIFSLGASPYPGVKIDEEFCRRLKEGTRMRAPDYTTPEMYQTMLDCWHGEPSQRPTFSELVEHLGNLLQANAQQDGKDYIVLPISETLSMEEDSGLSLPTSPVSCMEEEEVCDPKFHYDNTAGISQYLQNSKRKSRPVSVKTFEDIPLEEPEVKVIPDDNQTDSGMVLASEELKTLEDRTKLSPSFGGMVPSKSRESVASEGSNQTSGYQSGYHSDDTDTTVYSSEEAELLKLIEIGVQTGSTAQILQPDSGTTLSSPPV
Method: 10.3 Assay 3: VEGF Receptor-2 Kinase Assay
Recombinant VEGF receptor tyrosine kinase-2 was purified as GST fusion protein from baculovirus-infected insect cells (Sf9). Poly-(Glu4Tyr), used as kinase substrate, was purchased from the company Sigma.
VEGF receptor tyrosine kinase (90 ng/measuring point) was incubated for 10 min at 22° C. in the presence of various concentrations of test substances (0 μM, and within the range 0.001-30 μM) in 30 μl assay buffer [40 mM Tris/HCl pH5.5, 10 mM MgCl2, 1 mM MnCl2, 3 μM Na ortho-vanadate, 1.0 mM dithiothreitol, 8 μM adenosine triphosphate (ATP), 0.96 μg/measuring point poly-(Glu4Tyr), 0.2 μCi/measuring point ^33P-gamma ATP, 1.4% dimethylsulfoxide]. The reaction was stopped by adding EDTA solution (250 mM, pH8.0, 15 μl/measuring point).
as §1

C[C@@H](O)[C@@H](C)Oc1nc(Nc2ccc(S(C)(=N)=O)cc2)ncc1Br (stereo partly shown) [Example V13]
IC50 [1]: 3 nM | reduction of tumor weight at the end of the study to % of the control group ([2]; 10 mg/kg (group 4), day 20): 23% | tolerability of the cyclic treatment regimen ([2]; 10 mg/kg): well-tolerated | effect on tumor growth (in words) ([2]; 6, 8, 10 mg/kg): dose-dependent inhibition of tumor growth | response vs control in vivo at 10 mg/kg ([2]; Mus musculus, 480 h, 10 mg/kg (group 4), day 20, read-out: treatment/control ratio T/C (tumor weight)): 23% | IC50 [3]: 9 nM | IC50 [4]: 140 nM
